This note sets out measurements from paper PMC5963757, “Expression, purification, and inhibition profile of dihydrofolate reductase from the filarial nematode Wuchereria bancrofti” (PLoS ONE, 2018).

In experiment [1] the target is T1, WbDHFR (Wuchereria bancrofti, UniProt J9F199). It counts as biochemical. The procedure:
Compounds (-)-epicatechin, (-)-epicatechin gallate, and vitexin were tested as inhibitors of WbDHFR and BmDHFR. The compounds (-)-epicatechin and (-)-epicatechin gallate were synthesized as described previously. […] Disappearance of DHF and NADPH was observed by measuring absorbance at 340 nm to measure the DHFR activity in a SpectraMax M3 microplate reader. […] All experiments were completed in triplicate.

The target in experiment [2] is T1, WbDHFR. The procedure: To determine the mechanism of inhibition, Dixon plots were created and analyzed for the inhibitors against WbDHFR. We determined WbDHFR activity as described above at DHF concentrations of 2 μM, 4 μM, and 8 μM in 200 μL reaction volumes. WbDHFR (6 nM) and 100 μM NADPH cofactor were included in 1 X MTEN buffer at pH 6.0. […] The reciprocal initial velocities were plotted against inhibitor concentration for each substrate in Excel to create the Dixon plots. Substrate trend-lines were extended to calculate the intersection point,–KI. Each Dixon plot was generated in triplicate.
A linear equation was fitted to the data at each substrate concentration. […] The KI values for BmDHFR in Table 1 were obtained using the Cheng-Prusoff Equation [18]. […] Inhibitor structures are shown in supporting information (S2 Fig).

Where [3] appears, read: read-out: IC50 WbDHFR, pH 6.0, 100 μM NADPH, 50 μM DHF, 12.1 nM WbDHFR, average of triplicates ± S.D.
Where [4] appears, read: read-out: IC50 against WbDHFR Average, average of three trials.
[5] abbreviates: read-out: IC50 against WbDHFR Trial 1, individual trial.
Where [6] appears, read: read-out: IC50 against WbDHFR Trial 2, individual trial.
[7] abbreviates: read-out: IC50 against WbDHFR Trial 3, individual trial.
Where [8] appears, read: read-out: KI Trial 1, WbDHFR, individual trial, Dixon plot.
Where [9] appears, read: read-out: KI Trial 2, WbDHFR, individual trial, Dixon plot.
Where [10] appears, read: read-out: KI Trial 3, WbDHFR, individual trial, Dixon plot.
Where [11] appears, read: read-out: KI WbDHFR, from Dixon plots, 6 nM WbDHFR, 100 μM NADPH, DHF 2, 4, 8 μM, pH 6.0, ± S.D.
[12] abbreviates: read-out: Average KI, WbDHFR, average of three trials, Dixon plots.

Like-named read-outs stand apart in the source and are kept apart here. A value given as a limit tells only on which side of the number the result lay.

In general, IC50 refers to the concentration at which inhibition is half-maximal. The Ki is a measure of affinity in units of concentration, obtained from inhibition or displacement.

For the compound `Oc1cc(O)c2c(c1)O[C@H](c1ccc(O)c(O)c1)[C@H](O)C2` [(-)-Epicatechin, (-)-epicatechin], in experiment [1] (setting [3]), the concentration for half-maximal inhibition (IC50) was over 2500 µM.

For `Nc1nc(N)c2nc(CNc3ccc(C(=O)N[C@@H](CCC(=O)O)C(=O)O)cc3)cnc2n1` [Aminopterin, aminopterin], the concentration for half-maximal inhibition (IC50) in experiment [1] (setting [3]) is 0.014 ± 0.005 µM; in experiment [1] (setting [4]) it was 0.0144 µM; in experiment [1] (setting [5]), 0.0203 µM; in experiment [1] (setting [6]), 0.00996 µM; in experiment [1] (setting [7]), 0.013 µM. Moreover, the Ki in experiment [2] (setting [8]) was 0.0026 µM; in experiment [2] (setting [9]), 0.00219 µM; in experiment [2] (setting [10]), 0.0016 µM; in experiment [2] (read-out: KI WbDHFR, as stated in text (abstract, discussion)), 0.0021 ± 0.0005 µM; in experiment [2] (setting [11]), 0.0021 ± 0.0005 µM.

As to `CCc1nc(N)nc(N)c1-c1ccc(Cl)cc1` [Pyrimethamine, pyrimethamine], the IC50 was found to be 454 ± 37 µM in experiment [1] (setting [3]); 454 µM in experiment [1] (setting [4]); 449 µM in experiment [1] (setting [5]); 494 µM in experiment [1] (setting [6]); 420 µM in experiment [1] (setting [7]). In addition, the Ki stood at 15 µM in experiment [2] (setting [12]); 20.3 µM in experiment [2] (setting [8]); 15.9 µM in experiment [2] (setting [9]); 8.89 µM in experiment [2] (setting [10]); 15 ± 6 µM in experiment [2] (setting [11]).

Regarding `Cc1nc2ccc(CN(C)c3ccc(C(=O)N[C@@H](CCC(=O)O)C(=O)O)s3)cc2c(=O)[nH]1` [Raltitrexed, raltitrexed], the 50% inhibitory concentration (IC50) in experiment [1] (setting [3]) was determined as 18 ± 10 µM; in experiment [1] (setting [4]), 17.8 µM; in experiment [1] (setting [5]) it was 28.6 µM; in experiment [1] (setting [6]), 11.7 µM; in experiment [1] (setting [7]), 13 µM. The Ki in experiment [2] (setting [12]) came to 1.6 µM; in experiment [2] (setting [8]) it was 0.536 µM; in experiment [2] (setting [9]) it was 1.09 µM; in experiment [2] (setting [10]), 3.32 µM.

For the compound `O=c1cc(-c2ccc(O)cc2)oc2c([C@@H]3O[C@H](CO)[C@@H](O)[C@H](O)[C@H]3O)c(O)cc(O)c12` [Vitexin, vitexin], the IC50 in experiment [1] (setting [3]) is over 240 µM.
